Data set [1] is described as follows: In vitro screening of absorption (PAMPA experiments). Type of data set: in vitro ADME. Here is the method: The permeability of ibandronate (as a control sample) and samples 1-3, 6 and 7 was tested. To retain interactions of both components in the solution it is recommended to increase the concentration of the counterion in the applied mixture. Therefore samples 1-3, 6 and 7 with the addition of sixfold quantity of phenyl-β-D-galactopyranoside to the co-crystal solution were also evaluated.
The permeability of generated co-crystals was evaluated in vitro, using a vertical PAMPA (Parallel Artificial Membrane Permeability Assay) system (BD GentestTMPre-Coated PAMPA Plate System, 96 wells, http://www.bdbeurope.com). The donor samples were prepared by dissolving the tested potential co-crystals in 0.01 M HCl, and than pH was adjusted by bicarbonate buffer to pH 7.4. The control sample was prepared in the same manner from ibandronate standards. A carbonate buffer saline (physiological solution) with pH 7.4 was used as a receptor phase. About 0.5 h before the experiment the PAMPA system was taken out from the freezer and warmed up to the ambient temperature. The receptor phase (200 μL/well) was pipetted into the upper wells. The donor phase was pipetted into the lower ones (300 μL/well). After the incubation time (5 h) 10 μL of the acceptor phase was taken from each well and mixed with physiological solution (990 μL). At least five determinations were performed. […]
For orientation: The PAMPA barrier holds no transporters, so it reflects passive diffusion.

The conditions of data set [2]: cited from earlier work.

In the case of `CCCCCN(C)CCC(O)(P(=O)([O-])O)P(=O)(O)O.[Na+]` [IBN monosodium salt, sodium hydrogen {1-hydroxy-3-[methyl(pentyl)amino]-1-phosphonopropyl}phosphonate], the “Absorption in PAMPA (in words, relative to ibandronate control)” value in data set [1] (PAMPA, pH 7.4, 5 h) is on record as “highest absorption”. In addition, the “Concentration in acceptor solutions of PAMPA plates, Conc.” value in data set [1] (donor and receptor phase pH 7.4, incubation 5 h, calculated from 5 experiments, samples 1a-7a with sixfold quantity of phenyl-β-D-galactopyranoside added to the co-crystal solution) was 2400 ng/mL. The “Solubility in organic solvents” value in data set [2] (organic solvents) is given as “practically insoluble”. For the same molecule, in data set [2] (water), the Solubility in water result is “freely soluble”.

These data come from paper PMC6259308, “Preparation and Properties of New Co-Crystals of Ibandronate with Gluco- or Galactopyranoside Derivatives” (Molecules, 2010).
